Among the data in patent publication US9650395B2, “Antibacterial compounds and methods for use” (PTC Therapeutics, Inc., priority 2011, dated 2017) are MIC values, retold here.

The subject of assay [1] is Acinetobacter baumannii (A. baumannii) BAA747. Nature of the assay: Antibacterial activity, MIC, A. baumannii BAA747. Type of assay: cell-based. As to conditions: Acinetobacter baumannii; A. baumannii BAA747; read-out: MIC BAA747.
Assay [2] has as its system Gram-positive Staphylococcus aureus (S. aureus) 29213. The assay is described as follows: Antibacterial activity, microbroth dilution MIC, S. aureus 29213. Type of assay: cell-based. As to conditions: Staphylococcus aureus; S. aureus 29213, microbroth dilution; read-out: MIC, 29213. In general terms: Dilution methods test growth across graded concentrations, often in twofold steps.

The test system of assay [3] is resistant K. pneumoniae MXX1232 (MDR clinical isolate). The assay is described as follows: Antibacterial activity, MIC, resistant K. pneumoniae MXX1232. The format is cell-based, Klebsiella pneumoniae. The conditions noted are these: Klebsiella pneumoniae, read-out: MIC MMX1232.
Assay [4] deals with quinolone resistant E. coli LZ3111. Nature of the assay: Antibacterial activity, MIC, quinolone resistant E. coli LZ3111. The format is cell-based, Escherichia coli. The conditions noted are these: Escherichia coli, read-out: MIC, LZ3111. An excerpt:
(§1) The antibacterial activity from a microbroth dilution method may be presented as the minimum inhibitory concentration (MIC in […]). The MIC value is the lowest concentration of a drug which prevents macroscopically visible bacterial growth under test conditions.
Mutations in these regions are known to confer a high level resistance to the quinolone class of antibiotics.

Assay [5] concerns control Gram-negative E. coli 25922 strain. Nature of the assay: Antibacterial activity, microbroth dilution MIC, E. coli 25922. Type of assay: cell-based, Escherichia coli. The conditions noted are these: Escherichia coli; E. coli 25922, microbroth dilution; read-out: MIC, 25922.
The test system of assay [6] is Pseudomonas aeruginosa (P. aeruginosa) 27853. The assay is described as follows: Antibacterial activity, MIC, P. aeruginosa 27853. Type of assay: cell-based. As to conditions: Pseudomonas aeruginosa, P. aeruginosa 27853; read-out: MIC 27853.
Excerpt: as §1
Antibacterial activity of test compounds against the Gram-negative bacterium Pseudomonas aeruginosa (P. aeruginosa) 27853 is shown in Table 5.

The test system of assay [7] is super sensitive Gram-negative Escherichia coli (E. coli) BAS849. The assay is described as follows: Antibacterial activity, microbroth dilution MIC, E. coli BAS849. The format is cell-based. The conditions noted are these: Escherichia coli; E. coli BAS849, microbroth dilution; read-out: MIC, BAS849.
Assay [8] relates to Klebsiella pneumoniae (K. pneumoniae) 35657. Nature of the assay: Antibacterial activity, MIC, K. pneumoniae 35657. Type of assay: cell-based. As to conditions: Klebsiella pneumoniae.
Assay [9] has as its system resistant A. baumannii MXX2240 (MDR clinical isolate). Nature of the assay: Antibacterial activity, MIC, resistant A. baumannii MXX2240. Type of assay: cell-based, Acinetobacter baumannii. As to conditions: Acinetobacter baumannii, read-out: MIC MMX2240.
[10] abbreviates: resistant K. pneumoniae MMX1232, MDR clinical isolate.
The mark [11] stands for this setting: resistant A. baumannii MMX2240, MDR clinical isolate.

Values after ≈ are worked out from the molar mass of the structure shown. Where two headings read alike, the source gives them in different places. Where only a bound is given, the exact number is not on record here.

Take `CCc1c(-c2ccc(N3CCC(N(C)C)C3)nc2)[nH]c(=O)c(C(=O)O)c1O` (stereo not drawn) [Cpd 335, 6-(6-(3-(dimethylamino)pyrrolidin-1-yl)pyridin-3-yl)-5-ethyl-4-hydroxy-2-oxo-1,2-dihydropyridine-3-carboxylic acid]: the MIC (usually the smallest concentration in the dilution series that meets the test's criterion for growth inhibition) in assay [1] was 12.5 to 150 µg/mL (≈ 33.6 to 403 µM); in assay [2], 12.5 to 150 µg/mL (≈ 33.6 to 403 µM); in assay [3] (setting [10]), 12.5 to 150 µg/mL (≈ 33.6 to 403 µM); in [4], < 1 µg/mL; in [5], 12.5 to 150 µg/mL (≈ 33.6 to 403 µM); in assay [6], 12.5 to 150 µg/mL (≈ 33.6 to 403 µM). Besides, the results for the MIC in assay [7], in assay [8] and in assay [9] (setting [11]) were 3.5 to 12.5 µg/mL (≈ 9.4 to 33.6 µM), 12.5 to 150 µg/mL (≈ 33.6 to 403 µM) and 12.5 to 150 µg/mL (≈ 33.6 to 403 µM), respectively.
For `CCc1c(-c2ccc(N3CCCC3)nc2)[nH]c(=O)c(C(=O)O)c1O` [Cpd 336, 5-ethyl-4-hydroxy-2-oxo-6-(6-(pyrrolidin-1-yl)pyridin-3-yl)-1,2-dihydropyridine-3-carboxylic acid], the MIC in [1] is 12.5 to 150 µg/mL (≈ 38 to 455 µM); in [2] it was 12.5 to 150 µg/mL (≈ 38 to 455 µM); in assay [3] (setting [10]), 12.5 to 150 µg/mL (≈ 38 to 455 µM); in assay [4], 3.5 to 12.5 µg/mL (≈ 10.6 to 38 µM); in assay [5] it was 12.5 to 150 µg/mL (≈ 38 to 455 µM); in [6] it was 12.5 to 150 µg/mL (≈ 38 to 455 µM). Also, the values for the MIC in [7], in assay [8] and in assay [9] (setting [11]) were 1 to 3.5 µg/mL (≈ 3.04 to 10.6 µM), 12.5 to 150 µg/mL (≈ 38 to 455 µM) and 12.5 to 150 µg/mL (≈ 38 to 455 µM), respectively.
Turning to `Cc1c(-c2ccc(N3CCC(N(C)C)C3)nc2)[nH]c(=O)c(C(=O)O)c1O` (stereo not drawn) [Cpd 337, 6-(6-(3-(dimethylamino)pyrrolidin-1-yl)pyridin-3-yl)-4-hydroxy-5-methyl-2-oxo-1,2-dihydropyridine-3-carboxylic acid], the MIC in assay [1] is 12.5 to 150 µg/mL (≈ 34.9 to 419 µM); in assay [2] it was 12.5 to 150 µg/mL (≈ 34.9 to 419 µM); in assay [3] (setting [10]) it was 12.5 to 150 µg/mL (≈ 34.9 to 419 µM); in assay [4], < 1 µg/mL; in [5] it was 12.5 to 150 µg/mL (≈ 34.9 to 419 µM); in assay [6], 12.5 to 150 µg/mL (≈ 34.9 to 419 µM). Besides, the MIC in assay [7], in assay [8] and in assay [9] (setting [11]) was 12.5 to 150 µg/mL (≈ 34.9 to 419 µM) each time.
In the case of `CCc1c(-c2ccc(C3CCN(C)CC3)cc2)[nH]c(=O)c(C(=O)O)c1O` [Cpd 338, 5-ethyl-4-hydroxy-6-(4-(1-methylpiperidin-4-yl)phenyl)-2-oxo-1,2-dihydropyridine-3-carboxylic acid], the MIC in assay [1], in [2], in assay [3] (setting [10]), in assay [4], in assay [5] and in assay [6] was 12.5 to 150 µg/mL (≈ 35.1 to 421 µM) throughout. In addition, the MIC in [7], in assay [8] and in assay [9] (setting [11]) was 12.5 to 150 µg/mL (≈ 35.1 to 421 µM) each time.
Consider `CCc1c(-c2ccc(C3CCN(CC)CC3)cc2)[nH]c(=O)c(C(=O)O)c1O` [Cpd 339, 5-ethyl-6-(4-(1-ethylpiperidin-4-yl)phenyl)-4-hydroxy-2-oxo-1,2-dihydropyridine-3-carboxylic acid], for which the MIC in [1], in [2], in assay [3] (setting [10]), in [4], in assay [5] and in [6] was 12.5 to 150 µg/mL (≈ 33.7 to 405 µM) in each case. Moreover, the MIC in assay [7] was 3.5 to 12.5 µg/mL (≈ 9.45 to 33.7 µM); in assay [8], 12.5 to 150 µg/mL (≈ 33.7 to 405 µM); in assay [9] (setting [11]) it was 12.5 to 150 µg/mL (≈ 33.7 to 405 µM).
On to `CCc1c(-c2ccc(C3=CCNCC3)cc2)[nH]c(=O)c(C(=O)O)c1O` [Cpd 340, 5-ethyl-4-hydroxy-2-oxo-6-(4-(1,2,3,6-tetrahydropyridin-4-yl)phenyl)-1,2-dihydropyridine-3-carboxylic acid], for which the MIC in assay [1], in assay [2], in assay [3], in [4], in assay [5] and in assay [6] was 12.5 to 150 µg/mL (≈ 36.7 to 441 µM) each time. The MIC in assay [7] is 3.5 to 12.5 µg/mL (≈ 10.3 to 36.7 µM); in [8], 3.5 to 12.5 µg/mL (≈ 10.3 to 36.7 µM); in assay [9], 12.5 to 150 µg/mL (≈ 36.7 to 441 µM).
Take `CCc1c(-c2ccc(C3=CCN(CC)CC3)cc2)[nH]c(=O)c(C(=O)O)c1O` [Cpd 341, 5-ethyl-6-(4-(1-ethyl-1,2,3,6-tetrahydropyridin-4-yl)phenyl)-4-hydroxy-2-oxo-1,2-dihydropyridine-3-carboxylic acid]: the MIC in assay [1] fell in the range of 12.5 to 150 µg/mL (≈ 33.9 to 407 µM); in assay [2], 12.5 to 150 µg/mL (≈ 33.9 to 407 µM); in assay [3], 12.5 to 150 µg/mL (≈ 33.9 to 407 µM); in assay [4] it was 3.5 to 12.5 µg/mL (≈ 9.5 to 33.9 µM); in assay [5], 12.5 to 150 µg/mL (≈ 33.9 to 407 µM); in assay [6], 12.5 to 150 µg/mL (≈ 33.9 to 407 µM). For the same compound, the MIC in assay [7] fell in the range of 1 to 3.5 µg/mL (≈ 2.71 to 9.5 µM); in assay [8], 3.5 to 12.5 µg/mL (≈ 9.5 to 33.9 µM); in assay [9] it was 12.5 to 150 µg/mL (≈ 33.9 to 407 µM).
With `CCc1c(-c2ccc(C3=CCN(C)CC3)cc2)[nH]c(=O)c(C(=O)O)c1O` [Cpd 342, 5-ethyl-4-hydroxy-6-(4-(1-methyl-1,2,3,6-tetrahydropyridin-4-yl)phenyl)-2-oxo-1,2-dihydropyridine-3-carboxylic acid], the MIC in [1] was in the range of 12.5 to 150 µg/mL (≈ 35.3 to 423 µM); in [2] it was 12.5 to 150 µg/mL (≈ 35.3 to 423 µM); in assay [3] it was 12.5 to 150 µg/mL (≈ 35.3 to 423 µM); in assay [4] it was 3.5 to 12.5 µg/mL (≈ 9.88 to 35.3 µM); in assay [5] it was 3.5 to 12.5 µg/mL (≈ 9.88 to 35.3 µM); in [6], 12.5 to 150 µg/mL (≈ 35.3 to 423 µM). Also, the minimal inhibitory concentration (MIC) fell in the range of 1 to 3.5 µg/mL (≈ 2.82 to 9.88 µM) in assay [7], 3.5 to 12.5 µg/mL (≈ 9.88 to 35.3 µM) in [8] and 12.5 to 150 µg/mL (≈ 35.3 to 423 µM) in assay [9].
